In US9828393B2, “Silylalkyloxyaryl compounds and methods for treating cancer” (THE REGENTS OF THE UNIVERSITY OF COLORADO, a body corporate, priority 2013, dated 2017):

How the values were obtained:
UO-31 = assay: NCI-60 cell line screen (SRB), UO-31; type: cell-based, human; conditions: Homo sapiens, UO-31, 48 h
Procedure: (§1) Drug sensitivity data are provided as GI50s (concentrations required to inhibit growth by 50%). The first row of the text file identifies cell lines, separated by tabs. Subsequent rows contain compound number, compound name, and GI50 for each cell line, each separated by a tab. […] For a typical screening experiment, cells are inoculated into 96 well microtiter plates in 100 μL at plating densities ranging from 5,000 to 40,000 cells/well depending on the doubling time of individual cell lines. After cell inoculation, the microtiter plates are incubated at 37° C., 5% CO2, 95% air and 100% relative humidity for 24 h prior to addition of experimental drugs. After 24 h, two plates of each cell line are fixed in situ with TCA, to represent a measurement of the cell population for each cell line at the time of drug addition (Tz). Experimental drugs are solubilized in dimethyl sulfoxide at 400-fold the desired final maximum test concentration and stored frozen prior to use. At the time of drug addition, an aliquot of frozen concentrate is thawed and diluted to twice the desired final maximum test concentration with complete medium containing 50 μg/ml gentamicin. Additional four, 10-fold or one-half log serial dilutions are made to provide a total of five drug concentrations plus control. Aliquots of 100 μl of these different drug dilutions are added to the appropriate microtiter wells already containing 100 μl of medium, resulting in the required final drug concentrations. Following drug addition, the plates are incubated for an additional 48 h at 37° C., 5% CO2, 95% air, and 100% relative humidity. For adherent cells, the assay is terminated by the addition of cold TCA. Cells are fixed in situ by the gentle addition of 50 μl of cold 50% (w/v) TCA (final concentration, 10% TCA) and incubated for 60 minutes at 4° C. The supernatant is discarded, and the plates are washed five times with tap water and air dried. Sulforhodamine B (SRB) solution (100 μl) at 0.4% (w/v) in 1% acetic acid is added to each well, and plates are incubated for 10 minutes at room temperature. After staining, unbound dye is removed by washing five times with 1% acetic acid and the plates are air dried. Bound stain is subsequently solubilized with 10 mM trizma base, and the absorbance is read on an automated plate reader at a wavelength of 515 nm. For suspension cells, the methodology is the same except that the assay is terminated by fixing settled cells at the bottom of the wells by gently adding 50 μl of 80% TCA (final concentration, 16% TCA). Using the seven absorbance measurements [time zero, (Tz), control growth, (C), and test growth in the presence of drug at the five concentration levels (Ti)], the percentage growth is calculated at each of the drug concentrations levels. […]

OVCAR-4 = assay: NCI-60 cell line screen (SRB), OVCAR-4; type: cell-based, human; conditions: Homo sapiens, OVCAR-4, 48 h
Procedure: as §1

DU145 = assay: NCI-60 cell line screen (SRB), DU145; type: cell-based, human; conditions: Homo sapiens, DU-145, 48 h
Procedure: as §1

A549/ATCC = assay: NCI-60 cell line screen (SRB), A549/ATCC; type: cell-based, human; conditions: Homo sapiens, A549, 48 h
Procedure: as §1

NCI-H226 = assay: NCI-60 cell line screen (SRB), NCI-H226; type: cell-based, human; conditions: Homo sapiens, NCI-H226, 48 h
Procedure: as §1

NCI-H322M = assay: NCI-60 cell line screen (SRB), NCI-H322M; type: cell-based, human; conditions: Homo sapiens, 48 h
Procedure: as §1

IGROV1 = assay: NCI-60 cell line screen (SRB), IGROV1; type: cell-based, human; conditions: Homo sapiens, IGROV-1, 48 h
Procedure: as §1

HOP-62 = assay: NCI-60 cell line screen (SRB), HOP-62; type: cell-based, human; conditions: Homo sapiens, HOP-62, 48 h
Procedure: as §1

SK-MEL-5 = assay: NCI-60 cell line screen (SRB), SK-MEL-5; type: cell-based, human; conditions: Homo sapiens, SK-MEL-5, 48 h
Procedure: as §1

SF-539 = assay: NCI-60 cell line screen (SRB), SF-539; type: cell-based, human; conditions: Homo sapiens, SF-539, 48 h
Procedure: as §1

MOLT-4 = assay: NCI-60 cell line screen (SRB), MOLT-4; type: cell-based, human; conditions: Homo sapiens, MOLT-4, 48 h
Procedure: as §1

COLO 205 = assay: NCI-60 cell line screen (SRB), COLO 205; type: cell-based, human; conditions: Homo sapiens, COLO 205, 48 h
Procedure: as §1

NCI-H522 = assay: NCI-60 cell line screen (SRB), NCI-H522; type: cell-based, human; conditions: Homo sapiens, NCI-H522, 48 h
Procedure: as §1

MCF-7 = assay: NCI-60 cell line screen (SRB), MCF-7; type: cell-based, human; conditions: Homo sapiens, MCF7, 48 h
Procedure: as §1

HCC-2998 = assay: NCI-60 cell line screen (SRB), HCC-2998; type: cell-based, human; conditions: Homo sapiens, HCC 2998, 48 h
Procedure: as §1

CCRF-CEM = assay: NCI-60 cell line screen (SRB), CCRF-CEM; type: cell-based, human; conditions: Homo sapiens, 48 h
Procedure: as §1

HCT-116 = assay: NCI-60 cell line screen (SRB), HCT-116; type: cell-based, human; conditions: Homo sapiens, HCT-116, 48 h
Procedure: as §1

HCT-15 = assay: NCI-60 cell line screen (SRB), HCT-15; type: cell-based, human; conditions: Homo sapiens, HCT-15, 48 h
Procedure: as §1

CAKI-1 = assay: NCI-60 cell line screen (SRB), CAKI-1; type: cell-based, human; conditions: Homo sapiens, CAKI-1, 48 h
Procedure: as §1

SNB-19 = assay: NCI-60 cell line screen (SRB), SNB-19; type: cell-based, human; conditions: Homo sapiens, SNB-19, 48 h
Procedure: as §1

SNB-75 = assay: NCI-60 cell line screen (SRB), SNB-75; type: cell-based; conditions: Homo sapiens, SNB-75, 48 h
Procedure: as §1, with “temperature.” for “temperature. After staining, unbound dye is removed by washing five times with 1% acetic acid and the plates are air dried. Bound stain is subsequently solubilized with 10 mM trizma base, and the absorbance is read on an automated plate reader at a wavelength of 515 nm. For suspension cells, the methodology is the same except that the assay is terminated by fixing settled cells at the bottom of the wells by gently adding 50 μl of 80% TCA (final concentration, 16% TCA). Using the seven absorbance measurements [time zero, (Tz), control growth, (C), and test growth in the presence of drug at the five concentration levels (Ti)], the percentage growth is calculated at each of the drug concentrations levels.”

A-498 = assay: NCI-60 cell line screen (SRB), A-498; type: cell-based, human; conditions: Homo sapiens, A498, 48 h
Procedure: as §1

RXF 393 = assay: NCI-60 cell line screen (SRB), RXF 393; type: cell-based, human; conditions: Homo sapiens, RXF 393, 48 h
Procedure: as §1

Which GI50 (UO-31) does the source give for `CCCC[Si](C)(C)COc1ccc(C(=O)N[C@@H](Cc2ccc(-c3ccccc3)cc2)C(=O)NC2CC(C)(C)NC(C)(C)C2)cc1` [GH1504, N^α-{4-[(butyldimethylsilyl)methoxy]-benzoyl}-N-(2,2,6,6-tetramethylpiperidin-4-yl)-(4-phenyl-L-phenylalaninamide)] here?
The GI50 was 1.55 µM.

And the GI50 (OVCAR-4)?
Its GI50 is 0.521 µM.

What about the GI50 (DU145) of the same compound?
The GI50 was 0.368 µM.

And the GI50 (A549/ATCC)?
Its GI50 is 0.326 µM.

What about the GI50 (NCI-H226) of the same compound?
Its GI50 is 0.183 µM.

What about the GI50 (NCI-H322M) of the same compound?
Its GI50 is 1.71 µM.

And the GI50 (IGROV1)?
Its GI50 is 1.64 µM.

What about the GI50 (HOP-62) of the same compound?
Its GI50 is 1.36 µM.

And the GI50 (SK-MEL-5)?
The GI50 was 0.234 µM.

And the GI50 (SF-539)?
Its GI50 is 1.77 µM.

And the GI50 (MOLT-4)?
The GI50 was 0.775 µM.

What about the GI50 (COLO 205) of the same compound?
The GI50 was 0.215 µM.

What about the GI50 (NCI-H522) of the same compound?
The GI50 was 1.06 µM.

And the GI50 (MCF-7)?
The GI50 was 0.332 µM.

And the GI50 (HCC-2998)?
Its GI50 is 1.11 µM.

What about the GI50 (CCRF-CEM) of the same compound?
Its GI50 is 1.5 µM.

What about the GI50 (HCT-116) of the same compound?
Its GI50 is 0.218 µM.

And the GI50 (HCT-15)?
The GI50 was 0.309 µM.

And the GI50 (CAKI-1)?
The GI50 was 1.58 µM.

What about the GI50 (SNB-19) of the same compound?
The GI50 was 1.55 µM.

And the GI50 (SNB-75)?
Its GI50 is 1.63 µM.

What about the GI50 (A-498) of the same compound?
Its GI50 is 1.95 µM.

What about the GI50 (RXF 393) of the same compound?
The GI50 was 0.179 µM.
